Measurements from patent US7244727B2, “Fused bicyclic nitrogen-containing heterocycles” (Japan Tobacco Inc., priority 2002, dated 2007).
pIC50: −log10 of the molar value.

Legend:
[1] = biological target: T1, human DGAT1 (Homo sapiens, UniProt O75907); experiment: DGAT Scintillation Proximity Assay (SPA) with membranes of insect cells expressing human flagtag DGAT1; type: biochemical; conditions: read-out: hDGAT1 IC50
T1 construct: made in house; host or cells: insect cells (sf9, sf21 or High Five) infected with baculovirus; total cell membranes
T1 sequence (O75907 1-488): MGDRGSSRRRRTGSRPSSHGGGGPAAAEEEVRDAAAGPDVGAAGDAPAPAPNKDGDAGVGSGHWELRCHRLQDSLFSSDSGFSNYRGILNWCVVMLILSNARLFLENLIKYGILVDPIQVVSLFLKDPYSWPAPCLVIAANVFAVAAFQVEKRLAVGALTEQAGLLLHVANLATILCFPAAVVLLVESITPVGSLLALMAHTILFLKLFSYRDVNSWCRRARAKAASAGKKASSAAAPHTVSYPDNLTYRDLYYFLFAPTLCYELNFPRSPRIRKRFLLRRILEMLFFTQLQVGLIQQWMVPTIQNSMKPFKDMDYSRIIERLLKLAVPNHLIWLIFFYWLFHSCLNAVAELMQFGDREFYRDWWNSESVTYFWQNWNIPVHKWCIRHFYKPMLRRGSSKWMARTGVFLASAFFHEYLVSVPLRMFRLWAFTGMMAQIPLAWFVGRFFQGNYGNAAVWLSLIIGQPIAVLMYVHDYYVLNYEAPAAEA
In short: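 Membranes (0.2 μg/well) from insect cells expressing human flag-tagged DGAT1 incubated with 10 μM compound and 200 μM dioleoyl glycerol substrate; mercuric chloride as inhibition control. Reaction stopped with WGA SPA beads in mercuric chloride, overnight bead coupling, then scintillation proximity signal read.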

pIC50 [1]	melting point	Compound
7.00 to 8.00	> 250 °C	Cc1csc(NCC[C@H]2CC[C@H](c3ccc(C4=Nc5c(N)ncnc5OC4(C)C)cc3)CC2)n1 [Example 2-184]
7.00 to 8.00	193 to 194 °C	Cc1ncc(CC[C@H]2CC[C@H](c3ccc(C4=Nc5c(N)ncnc5OC4(C)C)cc3)CC2)[nH]1 [Example 2-185]
7.00 to 8.00	200 to 201 °C	CN(C)C(=O)CC[C@H]1CC[C@H](c2ccc(C3=Nc4c(N)ncnc4OC3(C)C)cc2)CC1 [Example 2-186]
> 8.00	206 to 208 °C	CC(C)NC(=O)CC[C@H]1CC[C@H](c2ccc(C3=Nc4c(N)ncnc4OC3(C)C)cc2)CC1 [Example 2-187]
7.00 to 8.00	173 to 175 °C	CCN(C)C(=O)CC[C@H]1CC[C@H](c2ccc(C3=Nc4c(N)ncnc4OC3(C)C)cc2)CC1 [Example 2-188]
7.00 to 8.00	192 to 194 °C	CCN(CC)C(=O)CC[C@H]1CC[C@H](c2ccc(C3=Nc4c(N)ncnc4OC3(C)C)cc2)CC1 [Example 2-189]
7.00 to 8.00	210 to 212 °C	CCCN(C)C(=O)CC[C@H]1CC[C@H](c2ccc(C3=Nc4c(N)ncnc4OC3(C)C)cc2)CC1 [Example 2-190]
> 8.00	> 250 °C	Cc1nc(N)c2c(n1)OC(C)(C)C(c1ccc([C@H]3CC[C@H](CCC(=O)O)CC3)cc1)=N2 [Example 2-191]
> 8.00	> 250 °C	Cc1nc(N)c2c(n1)OC(C)(C)C(c1ccc([C@H]3CC[C@H](CCC(=O)NS(C)(=O)=O)CC3)cc1)=N2 [Example 2-192]
7.00 to 8.00	> 240 °C	Cc1nc(N)c2c(n1)OC(C)(C)C(c1ccc([C@H]3CC[C@H](CCC(=O)NC(C)(C)CO)CC3)cc1)=N2 [Example 2-193]
7.00 to 8.00	230 to 231 °C	Cc1nc(N)c2c(n1)OC(C)(C)C(c1ccc([C@H]3CC[C@H](CCC(=O)N4C[C@@H](O)[C@@H](O)C4)CC3)cc1)=N2 [Example 2-194]
7.00 to 8.00	250 °C (dec.)	Cc1nc(N)c2c(n1)OC(C)(C)C(c1ccc([C@H]3CC[C@H](CCc4nc(=O)o[nH]4)CC3)cc1)=N2 [Example 2-195]
7.00 to 8.00	211 °C (dec.)	Cc1nc(N)c2c(n1)OC(C)(C)C(c1ccc([C@H]3CC[C@H](CCc4nc(=O)s[nH]4)CC3)cc1)=N2 [Example 2-196]
7.00 to 8.00	250 °C (dec.)	Cc1nc(N)c2c(n1)OC(C)(C)C(c1ccc([C@H]3CC[C@H](CCc4nc(=O)on4C)CC3)cc1)=N2 [Example 2-197]
7.00 to 8.00	> 250 °C	Cc1nc(N)c2c(n1)OC(C)(C)C(c1ccc([C@H]3CC[C@H](CCc4nc(=O)[nH]n4C)CC3)cc1)=N2 [Example 2-198]
> 8.00	> 250 °C	Cc1nc(N)c2c(n1)OC(C)(C)C(c1ccc([C@H]3CC[C@H](CCc4nn[nH]n4)CC3)cc1)=N2 [Example 2-200]
> 8.00	> 250 °C	Cc1nc(N)c2c(n1)OC(C)(C)C(c1ccc([C@H]3CC[C@H](CCC(=O)Nc4nn[nH]n4)CC3)cc1)=N2 [Example 2-201]
7.00 to 8.00	> 225 °C	Cc1nc(N)c2c(n1)OC(C)(C)C(c1ccc([C@H]3CC[C@H](CC(C)(C)C(=O)O)CC3)cc1)=N2 [Example 2-202]
7.00 to 8.00	235 to 237 °C	CC1(C)Oc2ncnc(N)c2N=C1c1ccc([C@H]2CC[C@H](C(=O)NCCO)CC2)cc1 [Example 2-203]
7.00 to 8.00	> 250 °C	CC1(C)Oc2ncnc(N)c2N=C1c1ccc([C@H]2CC[C@H](C(N)=O)CC2)cc1 [Example 2-204]
7.00 to 8.00	> 250 °C	CC1(C)Oc2ncnc(N)c2N=C1c1ccc([C@H]2CC[C@H](C(=O)NCC(=O)O)CC2)cc1 [Example 2-205]
7.00 to 8.00	> 250 °C	CC1(C)Oc2ncnc(N)c2N=C1c1ccc([C@H]2CC[C@H](C(=O)N3CCC(C(=O)O)CC3)CC2)cc1 [Example 2-207]
7.00 to 8.00	193 to 194 °C	CC1(C)Oc2ncnc(N)c2N=C1c1ccc([C@H]2CC[C@H](C(=O)N3CCCC3C(=O)O)CC2)cc1 (stereo partly shown) [Example 2-208]
7.00 to 8.00	> 250 °C	CC(=O)N[C@H]1CC[C@H](c2ccc(C3=Nc4c(N)ncnc4OC3(C)C)cc2)CC1 [Example 2-209]
7.00 to 8.00	> 250 °C	CC1(C)Oc2ncnc(N)c2N=C1c1ccc([C@H]2CC[C@H](NS(C)(=O)=O)CC2)cc1 [Example 2-210]

pIC50 [1]	melting point	Compound
7.00 to 8.00	> 250 °C	CC(NC(=O)[C@H]1CC[C@H](c2ccc(C3=Nc4c(N)ncnc4OC3(C)C)cc2)CC1)C(=O)O (stereo partly shown) [Example 2-211]
> 8.00	> 250 °C	CC(C)(NC(=O)[C@H]1CC[C@H](c2ccc(C3=Nc4c(N)ncnc4OC3(C)C)cc2)CC1)C(=O)O [Example 2-212]
7.00 to 8.00	> 250 °C	CC1(C)Oc2ncnc(N)c2N=C1c1ccc([C@H]2CC[C@H](C(=O)NC(CO)C(=O)O)CC2)cc1 (stereo partly shown) [Example 2-213]
> 8.00	> 250 °C	CN(CC(=O)O)C(=O)[C@H]1CC[C@H](c2ccc(C3=Nc4c(N)ncnc4OC3(C)C)cc2)CC1 [Example 2-214]
7.00 to 8.00	225 to 227 °C	CC1(C)Oc2ncnc(N)c2N=C1c1ccc([C@H]2CC[C@H](CN3C(=O)c4ccccc4C3=O)CC2)cc1 [Example 2-217]
7.00 to 8.00	212 °C	CC1(C)Oc2ncnc(N)c2N=C1c1ccc([C@H]2CC[C@H](NS(N)(=O)=O)CC2)cc1 [Example 2-218]
7.00 to 8.00	243 to 248 °C	CN(CC(=O)O)C(=O)[C@H]1CC[C@H](c2ccc(C3=Nc4c(N)ncnc4OC3(C)C)cc2)CC1 [Example 2-219]
< 7.00	> 250 °C	CC1(C)Oc2ncnc(N)c2NC1c1ccc([C@H]2CC[C@H](CS(N)(=O)=O)CC2)cc1 (stereo partly shown) [Example 2-221]
< 7.00	> 250 °C	CC1(C)Oc2ncnc(N)c2NC1c1ccc([C@H]2CC[C@H](NS(N)(=O)=O)CC2)cc1 (stereo partly shown) [Example 2-222]
< 7.00	169 to 171 °C	CC1(C)Oc2ncnc(N)c2N=C1c1ccc([C@H]2CC[C@H](CN3CCCCC3)CC2)cc1 [Example 2-224]
< 7.00	198 to 200 °C	CC1(C)Oc2ncnc(N)c2N=C1c1ccc([C@H]2CC[C@H](CN3CCC(CCO)CC3)CC2)cc1 [Example 2-227]
< 7.00	119 to 120 °C	CC1(C)Oc2ncnc(N)c2N=C1c1ccc([C@H]2CC[C@H](CN3CCC(Cc4ccccc4)CC3)CC2)cc1 [Example 2-228]
< 7.00	160 to 162 °C	CC1(C)Oc2ncnc(N)c2N=C1c1ccc([C@H]2CC[C@H](CN3CCCC3)CC2)cc1 [Example 2-229]
7.00 to 8.00	171 to 172 °C	CC(C)(C)OC(=O)N1CCN(C[C@H]2CC[C@H](c3ccc(C4=Nc5c(N)ncnc5OC4(C)C)cc3)CC2)CC1 [Example 2-232]
< 7.00	224 to 229 °C	CC(O)[C@H]1CC[C@H](c2ccc(C3=Nc4c(N)ncnc4OC3(C)C)cc2)CC1 (stereo partly shown) [Example 2-233]
7.00 to 8.00	226 to 230 °C	CC1(C)Oc2ncnc(N)c2N=C1c1ccc([C@H]2CC[C@H](NC(=O)CO)CC2)cc1 [Example 2-234]
7.00 to 8.00	201 to 202 °C	CC1(C)Oc2ncnc(N)c2N=C1c1ccc([C@H]2CC[C@H](C(=O)N3CCCC3)CC2)cc1 [Example 2-235]
7.00 to 8.00	220 to 224 °C	CC1(C)Oc2ncnc(N)c2N=C1c1ccc([C@H]2CC[C@H](C(=O)N3CCCCC3)CC2)cc1 [Example 2-236]
7.00 to 8.00	250 to 252 °C	CC1(C)Oc2ncnc(N)c2N=C1c1ccc([C@H]2CC[C@H](C(=O)N3CCC(O)CC3)CC2)cc1 [Example 2-237]
< 7.00	190 to 191 °C	CN1CCN(C(=O)[C@H]2CC[C@H](c3ccc(C4=Nc5c(N)ncnc5OC4(C)C)cc3)CC2)CC1 [Example 2-238]
< 7.00	233 to 235 °C	CC1(C)Oc2ncnc(N)c2N=C1c1ccc([C@H]2CC[C@H](C(=O)N3CCOCC3)CC2)cc1 [Example 2-239]
7.00 to 8.00	233 to 235 °C	CC1(C)Oc2ncnc(N)c2N=C1c1ccc([C@H]2CC[C@H](CN3CCN(S(C)(=O)=O)CC3)CC2)cc1 [Example 2-240]
7.00 to 8.00	120 to 126 °C	CC(C)C(=O)N1CCN(C[C@H]2CC[C@H](c3ccc(C4=Nc5c(N)ncnc5OC4(C)C)cc3)CC2)CC1 [Example 2-241]
7.00 to 8.00	208 to 210 °C	CN(C[C@H]1CC[C@H](c2ccc(C3=Nc4c(N)ncnc4OC3(C)C)cc2)CC1)C(=O)CO [Example 2-243]
7.00 to 8.00	208 to 209 °C	CC1(C)Oc2ncnc(N)c2N=C1c1ccc([C@H]2CC[C@H](CN3CCNCC3)CC2)cc1 [Example 2-244]
